From US20060034911A1, “New oral immediated release dosage form” (priority 2002, published 2006)

What was measured:
[1] = Plasma elimination half-life in man; format: in vivo; conditions: human, read-out: plasma elimination half-life, t1/2 (converted)

Compound Br.Cc1ccc(N2CCN(C)CC2)c2c1CC[C@@H](NC(=O)c1ccc(N3CCOCC3)cc1)C2 [(R)-N-[5-methyl-8-(4-methylpiperazin-1-yl)-1,2,3,4-tetrahydro-2-naphthyl]-4-morpholinobenzamide monohydrobromide] has a solubility (physchem; 0.1 M HCl, simulated gastric fluid) of 11 mg/mL, a solubility (physchem; ethanol/water 1:1, aqueous with cosolvent or surfactant or cyclodextrin) of 19 mg/mL and a solubility (physchem; water) of 6.4 mg/mL. For the same compound, the half-life [1] was 35 h.
